Data reported in US6964979B2, “R-enantiomers of pyranoindole derivatives and the use thereof for the treatment of hepatitis C virus infection or disease” (Wyeth, priority 2002, dated 2005).

target: T1, HCV RdRp NS5B d21BK (BK strain, 1b subtype) (Hepatitis C virus genotype 1b, UniProt P26663); assay: Hepatitis C polymerase (NS5B RdRp) inhibition, 33P-GTP incorporation filter assay; assay type: biochemical; conditions: NS5B d21BK 24 nM, 2 hours at room temperature; read-out: HCV pol IC50
T1 construct: NS5B from the BK strain (1b subtype) is expressed in E. coli as a protein in which the 21 C-terminal amino acids are replaced; made in house; host or cells: E. coli
From the text: The ability of the compounds of the present invention to inhibit Hepatitis C Polymerase was established by the following experimental procedure:
NS5B from the BK strain (1b subtype) is expressed in E. coli as a protein in which the 21 C-terminal amino acids are replaced with a short linker and a hexahistidine tag ([…]). The purified protein is mixed with radioactive nucleotides and allowed to replicate a heteropolymeric RNA substrate, primed by an endogenous short hairpin, resulting in an approximately 760 nt product. The radioactive product is captured on a filter and quantitated after removal of the unincorporated nucleotides.
(1) Compounds 10 μl at 10 μg/ml in 15% dimethylsulfoxide (DMSO)
• When starting from 100 μg/ml compound stock in […]: • Dispense 5 μl 30% DMSO per well • Dispense 5 μl compound (100 μg/ml) per well. • When starting from 50 μg/ml compound stock in 15% DMSO: • Add 10 μl compound per well. (2) Enzyme Mix:
Add 20 μl enzyme mix into each well of the assay plate. Incubate compound and enzyme at room temperature for 15 minutes. (3) Template Mix—Prepare Ahead
Spin down a tube of RNA (5 μg/tube stored in 75% ethanol and 0.3 M sodium acetate) in a microcentrifuge for 20 minutes. at 4° C. One tube is enough for 1-1.5 plates. Remove as much ethanol from the tube as possible by inverting the tube. Be gentle, pellet RNA may not adhere to the tube. Vacuum dry the RNA. Resuspend the RNA by adding 1 ml of DEPC water, close the cap of the tube tightly. To dissolve RNA, incubate RNA solution on ice for ˜60 minutes and gently vortex. Spin briefly to ensure all RNA solution is down to the bottom of the tube before opening cap. Gently transfer RNA solution into a 5 ml or larger tube. Add another 3 ml of DEPC water (total 4 ml of volume).
Add the following volumes of reagents
Add 20 μl template mix per reaction (i.e. 20 ng of pOF per reaction or ˜3 nM) (4) Incubate reaction at room temperature (22-25° C.) for 2 hours. (5) Stop reaction by adding 50 μl of 170 mM EDTA. • Final concentration of EDTA is 85 mM. (6) Prewet filters of Millipore multiscreen assay plate by adding 200 μl of 0.5 M sodium phosphate buffer, pH 7.0 into each well. Let stand at room temperature for 2-3 minutes. (7) Place the multiscreen filter plate onto a Millipore Manifold and turn on vacuum to allow buffer to flow through. Turn off vacuum. Transfer 80 μl of the reaction product into each well of the filter plate. Let stand for 2-3 minutes. Turn on vacuum to filter reaction product. (8) Turn off vacuum. Add. 200 μl of 0.5 M sodium phosphate buffer, pH 7.0 into each well to wash filter. […]
Percent inhibition is calculated after background subtraction as a percent reduction of activity relative to the positive control (average value of the plate excluding the negative controls). […]

T1 sequence (P26663 2420-2989): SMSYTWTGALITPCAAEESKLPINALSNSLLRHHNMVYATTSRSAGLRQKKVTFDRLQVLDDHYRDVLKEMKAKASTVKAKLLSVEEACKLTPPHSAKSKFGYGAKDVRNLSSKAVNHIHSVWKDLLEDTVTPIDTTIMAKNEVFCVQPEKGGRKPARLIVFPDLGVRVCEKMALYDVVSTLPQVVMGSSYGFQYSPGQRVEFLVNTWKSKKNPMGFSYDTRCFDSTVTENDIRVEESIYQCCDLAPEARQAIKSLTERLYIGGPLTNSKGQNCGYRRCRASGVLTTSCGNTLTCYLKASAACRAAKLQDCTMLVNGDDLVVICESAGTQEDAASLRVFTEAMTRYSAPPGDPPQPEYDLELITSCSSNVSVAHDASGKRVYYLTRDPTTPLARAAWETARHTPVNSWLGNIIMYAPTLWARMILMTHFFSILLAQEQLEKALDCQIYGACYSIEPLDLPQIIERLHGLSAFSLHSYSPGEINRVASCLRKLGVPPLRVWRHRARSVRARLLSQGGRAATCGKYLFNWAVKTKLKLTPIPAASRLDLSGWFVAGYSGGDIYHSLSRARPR

`CCC[C@]1(CC(=O)O)OCCc2c1[nH]c1c(C)ccc(C#N)c21` [Example 1, [(R)-5-cyano-8-methyl-1-propyl-1,3,4,9-tetrahydropyrano[3,4-b]indol-1-yl]acetic acid] and `CCC[C@]1(CC(=O)O)OCCc2c1[nH]c1c(F)ccc(C#N)c21` [Example 2, [(R)-5-cyano-8-fluoro-1-propyl-1,3,4,9-tetrahydropyrano[3,4-b]indol-1-yl]acetic acid] are within 1.5-fold of each other in IC50: 0.33 µM for the first, 0.44 µM for the second.

`CCC[C@]1(CC(=O)O)OCCc2c1[nH]c1c(Cl)ccc(Cl)c21` [Example 3, [(R)-5,8-dichloro-1-propyl-1,3,4,9-tetrahydropyrano[3,4-b]indol-1-yl]acetic acid] and `CCC[C@]1(CC(=O)O)OCCc2c1[nH]c1c(C)cc(F)c(C#N)c21` [Example 4, [(R)-5-cyano-6-fluoro-8-methyl-1-propyl-1,3,4,9-tetrahydropyrano [3,4-b]indol-1-yl]acetic acid] are within 1.5-fold of each other in IC50: 0.06 µM for the first, 0.08 µM for the second.
